Where two headings read alike, the source gives them in different places.
What was measured:
[1] = test system: U937 cells; experiment: CellTiter 96 MTS cytotoxicity in U937 cells; details: U937, 48 hours; for IC50: read-out: U937 cells IC50 μM ± SD, MTS
Method: (§1) The U937 and THP-1 cell lines were seeded, 20 000 cells per well, in 96-well-plates. 50 μl medium ( ) was added to each well. At the same time test compounds were added in 5 different concentrations and incubated for 48 hours. The CellTiter 96® Non-Radioactive cell proliferation assay (Promega) was used to study the cytotoxicity of test in these cells. This assay is a colorimetric method for determining the number of viable cells in proliferation or chemosensitivity assays. […] MTS is bioreduced by cells into a formazan product that is soluble in tissue culture medium. The absorbance of the formazan at 490 nm can be measured directly from 96 well assay plates without additional processing.

[2] = test system: HeLa/mut cells; experiment: MTT growth inhibition in cervical cancer cell line HeLa/mut; type: cell-based, human; details: for IC50: 4 days incubation, MTT, read-out: IC50 μM ± Standard Deviation
Method: The cervical cancer cell line HeLa/mut was seeded, 5×10^3 cells per well, in 96-well-plates. The medium was RMPI 1640 with 2 mM Glutamine and 10% Foetal Bovine Serum. 24 hours later the test compounds were added in 6 concentrations. The cells were incubated for 4 days. The MTT solution was added to each well and incubated for 4 hours. The samples were read by an ELISA reader at 540 nm. The IC50 values were determined from growth curves. The test compounds were troxacitabine elaidic amid, troxacitabine petroselaidoate, troxacitabine-petroselaidic amide and troxacitabine γ-linolenoate.

[3] = test system: THP-1 cells; experiment: CellTiter 96 MTS cytotoxicity in THP-1 cells; details: THP-1, 48 hours; for IC50: read-out: THP-1 cells IC50 μM ± SD, MTS
Method: as §1

[4] = test system: MaTu/Adr cells; experiment: in-vitro activity in breast tumour line MaTu and adriamycin resistant subline MaTu/Adr; type: cell-based; details: MaTu/Adr vs. MaTu
[5] = test system: several cell lines; details: prior art references; cited from earlier work
[6] = test system: THP-1 cells
Method: as §1

[7] = test system: U937 cells
Method: as §1

SMILES | IC50 [1] [µM] | IC50 [3] [µM] | also measured
CCCCCCCC/C=C/CCCCCCCC(=O)Nc1ccn(C2COC(CO)O2)c(=O)n1 (stereo not drawn) [α-troxacitabine N4-elaidic acid amide, reference compound] | 10 |  | 
CCCCC/C=C\C/C=C\C/C=C\CCCCC(=O)OC[C@H]1OC[C@@H](n2ccc(N)nc2=O)O1 [troxacitabine γ-linolenoate, Troxacitabine 2′-hydroxymethyl-6,9,12-linolenoate] | 0.09 | 0.16 | IC50 [2]: 0.83 ± 0.59 µM
CCCCCCCC/C=C/CCCCCCCC(=O)Nc1ccn([C@@H]2CO[C@H](CO)O2)c(=O)n1 [troxacitabine elaidic-amide, Troxacitabine N^4-Elaidic Acid Amide] |  |  | resistance factor [4]: 6
CCCCCCCCCCC/C=C\CCCCC(=O)Nc1ccn([C@@H]2CO[C@H](CO)O2)c(=O)n1 [troxacitabine-petroselinic amide, Troxacitabine N^4-petroselinic acid amide] |  |  | cytotoxicity in words [1]: even more active than the other compounds; cytotoxicity in words [3]: even more active than the other compounds
CCCCCCCCC=CCCCCCCCC(=O)Nc1ccn(C2COC(CO)O2)c(=O)n1 (stereo not drawn) [oleic acid amid derivative] |  |  | times better than the elaidic counterpart [5]: 2 to 5 times
CCCCCCCCCCC/C=C/CCCCC(=O)OC[C@H]1OC[C@@H](n2ccc(N)nc2=O)O1 [troxacitabine petroselaidoate, Troxacitabine-2′-hydroxymethyl-petroselaidoate] | 0.08 | 0.06 | IC50 [2]: 0.18 ± 0.12 µM; fold more active than troxacitabine elaidic amid ([2]; relative to troxacitabine elaidic amide): 20 fold
CCCCCCCC/C=C/CCCCCCCC(=O)OC[C@H]1OC[C@@H](n2ccc(N)nc2=O)O1 [Troxacitabine-5′-elaidic acid ester, reference compound] | 0.06 | 0.06 | 
CCCCCCCCCCC/C=C/CCCCC(=O)Nc1ccn([C@@H]2CO[C@H](CO)O2)c(=O)n1 [troxacitabine-petroselaidic amide, Troxacitabine N^4-petroselaidic acid amide] | 0.02 | 0.08 | IC50 [2]: 0.15 ± 0.07 µM
CCCCCCCCCCC/C=C\CCCCC(=O)OC[C@H]1OC[C@@H](n2ccc(N)nc2=O)O1 [Troxacitabine-2′-hydroxymethyl-petroselinoate] | 0.007 | 0.09 | cytotoxicity in words [1]: even more active than the other compounds; cytotoxicity in words [3]: even more active than the other compounds
CCCCC/C=C\C/C=C\C/C=C\CCCCC(=O)Nc1ccn([C@@H]2CO[C@H](CO)O2)c(=O)n1 [Troxacitabine N^4-6,9,12-linolenic acid amide] | 0.007 | 0.085 | cytotoxicity in words [6]: even more active than the other compounds; cytotoxicity in words [7]: even more active than the other compounds
CCCCCCCCC=CCCCCCCCC(=O)OCC1OCC(n2ccc(N)nc2=O)O1 (stereo not drawn) [Troxacitabine-5′-oleate, reference compound] | 0.09 | 0.07 | 

From US8349834B2, “Dioxolane derivates for the treatment of cancer” (Clavis Pharma AS, priority 2005, dated 2013)
